Laboratory results as given in ChEMBL document CHEMBL1151757, “Synthesis, radiosynthesis, and biological evaluation of fluorine-18-labeled 2beta-carbo(fluoroalkoxy)-3beta-(3'-((Z)-2-haloethenyl)phenyl)nortropanes: candidate radioligands for in vivo imaging of the serotonin transporter with positron emission tomography” (J Med Chem, 2008).

Tested on: not listed separately
Test: Drug uptake in anesthetized cynomolgus monkey brain cerebellum after 195 mins postinjection
Assay type: ADME, organism-based, Macaca fascicularis
Details: in vivo, 3.25 h

SMILES	Drug uptake
O=C(OCC[18F])C1C2CCC(CC1c1ccc(/C=C\I)cc1)N2 (stereo unspecified)	1.29

Tested on: Medulla
Test: Drug uptake in anesthetized cynomolgus monkey brain medulla after 205 mins postinjection
Assay type: ADME, organism-based, Macaca fascicularis
Details: in vivo

SMILES	Drug uptake
O=C(OCC[18F])C1C2CCC(CC1c1ccc(/C=C\I)cc1)N2 (stereo unspecified)	3.32

Tested on: Medulla
Test: Drug uptake in anesthetized cynomolgus monkey brain medulla after 65 mins postinjection
Assay type: ADME, organism-based, Macaca fascicularis
Details: in vivo

SMILES	Drug uptake
O=C(OCC[18F])C1C2CCC(CC1c1ccc(/C=C\I)cc1)N2 (stereo unspecified)	3.75

Tested on: Midbrain
Test: Drug uptake in anesthetized cynomolgus monkey brain midbrain after 125 mins postinjection
Assay type: ADME, organism-based, Macaca fascicularis
Design: unit not given here
Details: in vivo

SMILES	Drug uptake
O=C(OCC[18F])C1C2CCC(CC1c1ccc(/C=C\I)cc1)N2 (stereo unspecified)	4.62

Tested on: Pons
Test: Drug uptake in anesthetized cynomolgus monkey brain pons after 27.5 mins postinjection
Assay type: ADME, organism-based, Macaca fascicularis
Details: in vivo

SMILES	Drug uptake
O=C(OCC[18F])C1C2CCC(CC1c1ccc(/C=C\I)cc1)N2 (stereo unspecified)	2.58

Tested on: Thalamus
Test: Drug uptake in anesthetized cynomolgus monkey brain thalamus after 235 mins postinjection
Assay type: ADME, organism-based, Macaca fascicularis
Design: unit not given here
Details: in vivo

SMILES	Drug uptake
O=C(OCC[18F])C1C2CCC(CC1c1ccc(/C=C\I)cc1)N2 (stereo unspecified)	3.34

Tested on: Thalamus
Test: Drug uptake in anesthetized cynomolgus monkey brain thalamus after 215 mins postinjection
Assay type: ADME, organism-based, Macaca fascicularis
Design: unit not given here
Details: in vivo

SMILES	Drug uptake
O=C(OCC[18F])C1C2CCC(CC1c1ccc(/C=C\I)cc1)N2 (stereo unspecified)	3.47

Tested on: not listed separately
Test: Ratio of drug uptake in occipital lobe to cerebellum in anesthetized cynomolgus monkey after 185 mins postinjection
Assay type: ADME, organism-based, Macaca fascicularis
Details: in vivo

SMILES	Ratio
O=C(OCC[18F])C1C2CCC(CC1c1ccc(/C=C\I)cc1)N2 (stereo unspecified)	1.4

Tested on: Caudate
Test: Drug uptake in anesthetized cynomolgus monkey brain caudate after 175 mins postinjection
Assay type: ADME, organism-based, Macaca fascicularis, Caudate nucleus
Details: in vivo

SMILES	Drug uptake
O=C(OCC[18F])C1C2CCC(CC1c1ccc(/C=C\I)cc1)N2 (stereo unspecified)	3

Tested on: not listed separately
Test: Ratio of drug uptake in putamen to cerebellum in anesthetized cynomolgus monkey after 155 mins postinjection
Assay type: ADME, organism-based, Macaca fascicularis
Details: in vivo

SMILES	Ratio
O=C(OCC[18F])C1C2CCC(CC1c1ccc(/C=C\I)cc1)N2 (stereo unspecified)	2.8

Tested on: Caudate
Test: Drug uptake in anesthetized cynomolgus monkey brain caudate after 15.5 mins postinjection
Assay type: ADME, organism-based, Macaca fascicularis, Caudate nucleus
Details: in vivo

SMILES	Drug uptake
O=C(OCC[18F])C1C2CCC(CC1c1ccc(/C=C\I)cc1)N2 (stereo unspecified)	1.74

Tested on: not listed separately
Test: Ratio of drug uptake in midbrain to cerebellum in anesthetized cynomolgus monkey after 225 mins postinjection
Assay type: ADME, organism-based, Macaca fascicularis
Details: in vivo, 3.75 h

SMILES	Ratio
O=C(OCC[18F])C1C2CCC(CC1c1ccc(/C=C\I)cc1)N2 (stereo unspecified)	4.2

Tested on: not listed separately
Test: Drug uptake in anesthetized cynomolgus monkey brain frontal lobe after 65 mins postinjection
Assay type: ADME, organism-based, Macaca fascicularis
Details: in vivo

SMILES	Drug uptake
O=C(OCC[18F])C1C2CCC(CC1c1ccc(/C=C\I)cc1)N2 (stereo unspecified)	2.03

Tested on: not listed separately
Test: Drug uptake in anesthetized cynomolgus monkey brain frontal lobe after 45 mins postinjection
Assay type: ADME, organism-based, Macaca fascicularis
Details: in vivo, 0.75 h

SMILES	Drug uptake
O=C(OCC[18F])C1C2CCC(CC1c1ccc(/C=C\I)cc1)N2 (stereo unspecified)	1.95

Tested on: not listed separately
Test: Ratio of drug uptake in thalamus to cerebellum in anesthetized cynomolgus monkey after 95 mins postinjection
Assay type: ADME, organism-based, Macaca fascicularis
Details: in vivo

SMILES	Ratio
O=C(OCC[18F])C1C2CCC(CC1c1ccc(/C=C\I)cc1)N2 (stereo unspecified)	1.9

Tested on: Caudate
Test: Drug uptake in anesthetized cynomolgus monkey brain caudate after 3.5 mins postinjection
Assay type: ADME, organism-based, Macaca fascicularis, Caudate nucleus
Details: in vivo

SMILES	Drug uptake
O=C(OCC[18F])C1C2CCC(CC1c1ccc(/C=C\I)cc1)N2 (stereo unspecified)	0.56

Tested on: Putamen
Test: Drug uptake in anesthetized cynomolgus monkey brain putamen after 205 mins postinjection
Assay type: ADME, organism-based, Macaca fascicularis
Details: in vivo

SMILES	Drug uptake
O=C(OCC[18F])C1C2CCC(CC1c1ccc(/C=C\I)cc1)N2 (stereo unspecified)	3.94

Tested on: not listed separately
Test: Ratio of drug uptake in thalamus to cerebellum in anesthetized cynomolgus monkey after 195 mins postinjection
Assay type: ADME, organism-based, Macaca fascicularis
Details: in vivo, 3.25 h

SMILES	Ratio
O=C(OCC[18F])C1C2CCC(CC1c1ccc(/C=C\I)cc1)N2 (stereo unspecified)	2.8

Tested on: not listed separately
Test: Ratio of drug uptake in pons to cerebellum in anesthetized cynomolgus monkey after 105 mins postinjection
Assay type: ADME, organism-based, Macaca fascicularis
Details: in vivo, 1.75 h

SMILES	Ratio
O=C(OCC[18F])C1C2CCC(CC1c1ccc(/C=C\I)cc1)N2 (stereo unspecified)	1.8

Tested on: Midbrain
Test: Drug uptake in anesthetized cynomolgus monkey brain midbrain after 85 mins postinjection
Assay type: ADME, organism-based, Macaca fascicularis
Design: unit not given here
Details: in vivo

SMILES	Drug uptake
O=C(OCC[18F])C1C2CCC(CC1c1ccc(/C=C\I)cc1)N2 (stereo unspecified)	4.42

Tested on: Putamen
Test: Drug uptake in anesthetized cynomolgus monkey brain putamen after 3.5 mins postinjection
Assay type: ADME, organism-based, Macaca fascicularis
Details: in vivo

SMILES	Drug uptake
O=C(OCC[18F])C1C2CCC(CC1c1ccc(/C=C\I)cc1)N2 (stereo unspecified)	0.82

Tested on: Medulla
Test: Drug uptake in anesthetized cynomolgus monkey brain medulla after 175 mins postinjection
Assay type: ADME, organism-based, Macaca fascicularis
Details: in vivo

SMILES	Drug uptake
O=C(OCC[18F])C1C2CCC(CC1c1ccc(/C=C\I)cc1)N2 (stereo unspecified)	3.52

Tested on: not listed separately
Test: Drug uptake in anesthetized cynomolgus monkey brain cerebellum after 225 mins postinjection
Assay type: ADME, organism-based, Macaca fascicularis
Details: in vivo, 3.75 h

SMILES	Drug uptake
O=C(OCC[18F])C1C2CCC(CC1c1ccc(/C=C\I)cc1)N2 (stereo unspecified)	1.08

Tested on: not listed separately
Test: Drug uptake in anesthetized cynomolgus monkey brain occipital lobe after 65 mins postinjection
Assay type: ADME, organism-based, Macaca fascicularis
Details: in vivo

SMILES	Drug uptake
O=C(OCC[18F])C1C2CCC(CC1c1ccc(/C=C\I)cc1)N2 (stereo unspecified)	2.38

Tested on: not listed separately
Test: Drug uptake in anesthetized cynomolgus monkey brain occipital lobe after 6.5 mins postinjection
Assay type: ADME, organism-based, Macaca fascicularis
Design: unit not given here
Details: in vivo

SMILES	Drug uptake
O=C(OCC[18F])C1C2CCC(CC1c1ccc(/C=C\I)cc1)N2 (stereo unspecified)	1.21

Tested on: not listed separately
Test: Drug uptake in anesthetized cynomolgus monkey brain cerebellum after 1.5 mins postinjection
Assay type: ADME, organism-based, Macaca fascicularis
Details: in vivo, 0.025 h

SMILES	Drug uptake
O=C(OCC[18F])C1C2CCC(CC1c1ccc(/C=C\I)cc1)N2 (stereo unspecified)	0.1
